Measurements as given in patent publication US10927123B2, “Modulators of the beta-3 adrenergic receptor useful for the treatment or prevention of disorders related thereto” (Arena Pharmaceuticals, Inc., priority 2016, dated 2021).

Molecular target: Beta-3 Adrenergic Receptor (Homo sapiens (Human), UniProt P13945)
Experiment: HTRF cAMP antagonist assay (IC50 determination)
Format: cell-based
Conditions: CHO-K1 cells stably expressing recombinant receptor; antagonism of isoproterenol at EC90; cAMP readout
Outline: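 CHO-K1 cells stably expressing receptor, 1500 cells/well, preincubated briefly with 10-point 5-fold compound series (top final typically 10 or 100 μM) in PBS with 1 mM IBMX, then challenged with isoproterenol at EC90 for 1 h at room temperature. cAMP read by HTRF against on-plate standard curve; IC50 from dose-response.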

Beta-3 Adrenergic Receptor, sequence (P13945 whole entry, species assumed): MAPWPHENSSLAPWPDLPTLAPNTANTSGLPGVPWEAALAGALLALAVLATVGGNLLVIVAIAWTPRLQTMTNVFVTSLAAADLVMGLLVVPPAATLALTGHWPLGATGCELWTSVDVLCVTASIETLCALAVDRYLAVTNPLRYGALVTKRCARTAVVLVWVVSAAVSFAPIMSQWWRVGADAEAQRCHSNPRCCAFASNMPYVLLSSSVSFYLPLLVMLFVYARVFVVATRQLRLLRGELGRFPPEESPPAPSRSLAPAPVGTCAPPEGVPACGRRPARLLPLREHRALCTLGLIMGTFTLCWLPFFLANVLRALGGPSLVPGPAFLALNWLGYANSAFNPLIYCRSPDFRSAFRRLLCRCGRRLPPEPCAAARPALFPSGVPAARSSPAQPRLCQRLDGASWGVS

Row | SMILES | IC50 [nM]
1 | COc1c(-c2ccc(CN)cc2)cccc1S(=O)(=O)N1CCC2(CC1)C[C@H](NC[C@H](O)COc1cccc(S(=O)(=O)CC(N)=O)c1)CO2 [Compound 206, 2-(3-((S)-3-((S)-8-(4′-(aminomethyl)-2-methoxybiphenyl-3-ylsulfonyl)-1-oxa-8-azaspiro[4.5]decan-3-ylamino)-2-hydroxypropoxy)phenylsulfonyl)acetamide] | 403
2 | O=S(=O)(c1cccc(OC[C@@H](O)CNC2COC3(CCN(S(=O)(=O)c4ccc5ccccc5c4)CC3)C2)c1)C1CCC1 (stereo partly drawn) [Compound 18, (2S)-1-(3-(cyclobutylsulfonyl)phenoxy)-3-(8-(naphthalen-2-ylsulfonyl)-1-oxa-8-azaspiro[4.5]decan-3-ylamino)propan-2-ol] | 48.9
3 | COc1ccc(S(=O)(=O)N2CCC3(CC2)C[C@H](NC[C@H](O)COc2cccc(S(=O)(=O)C4(CO)CC4)c2)CO3)cc1-c1ccc(C2(N)CC2)cc1 [Compound 225, (S)-1-((S)-8-(4′-(1-aminocyclopropyl)-6-methoxybiphenyl-3-ylsulfonyl)-1-oxa-8-azaspiro[4.5]decan-3-ylamino)-3-(3-(1-(hydroxymethyl)cyclopropylsulfonyl)phenoxy)propan-2-ol] | 33.1
4 | COc1ccc(S(=O)(=O)N2CCC3(CC2)C[C@H](NC[C@H](O)COc2cccc(S(=O)(=O)C(F)(F)CO)c2)CO3)cc1-c1ccc(C2(N)CC2)cc1 [Compound 239, (S)-1-((S)-8-(4′-(1-aminocyclopropyl)-6-methoxybiphenyl-3-ylsulfonyl)-1-oxa-8-azaspiro[4.5]decan-3-ylamino)-3-(3-(1,1-difluoro-2-hydroxyethylsulfonyl)phenoxy)propan-2-ol] | 30.9
5 | COc1ccc(S(=O)(=O)N2CCC3(CC2)C[C@H](NC[C@H](O)COc2cccc(S(=O)(=O)C4(CO)CC4)c2)CO3)cc1Br [Compound 201, (S)-1-((S)-8-(3-bromo-4-methoxyphenylsulfonyl)-1-oxa-8-azaspiro[4.5]decan-3-ylamino)-3-(3-(1-(hydroxymethyl)cyclopropylsulfonyl)phenoxy)propan-2-ol] | 41.8
6 | Cc1c(Br)cccc1S(=O)(=O)N1CCC2(CC1)C[C@H](NC[C@H](O)COc1cccc(S(=O)(=O)C3(CO)CC3)c1)CO2 [Compound 200, (S)-1-((S)-8-(3-bromo-2-methylphenylsulfonyl)-1-oxa-8-azaspiro[4.5]decan-3-ylamino)-3-(3-(1-(hydroxymethyl)cyclopropylsulfonyl)phenoxy)propan-2-ol] | 72.4
7 | Cc1c(-c2ccc(CN)cc2)cccc1S(=O)(=O)N1CCC2(CC1)C[C@@H](NC[C@H](O)COc1cccc(S(=O)(=O)C3(CO)CC3)c1)CO2 [Compound 203, (S)-1-((R)-8-(4′-(aminomethyl)-2-methylbiphenyl-3-ylsulfonyl)-1-oxa-8-azaspiro[4.5]decan-3-ylamino)-3-(3-(1-(hydroxymethyl)cyclopropylsulfonyl)phenoxy)propan-2-ol] | 1110
8 | CN1CCOc2ncc(S(=O)(=O)N3CCC4(CC3)C[C@@H](NC[C@H](O)COc3cccc(S(=O)(=O)CC(N)=O)c3)CO4)cc21 [Compound 159, 2-(3-((S)-2-hydroxy-3-((R)-8-(1-methyl-2,3-dihydro-1H-pyrido[2,3-b][1,4]oxazin-7-ylsulfonyl)-1-oxa-8-azaspiro[4.5]decan-3-ylamino)propoxy)phenylsulfonyl)acetamide] | 178
9 | CNCc1ccc(-c2cccc(S(=O)(=O)N3CCC4(CC3)CC(NC[C@H](O)COc3cccc(S(C)(=O)=O)c3)CO4)c2)cc1 (stereo partly drawn) [Compound 78, (2S)-1-(8-(4′-((methylamino)methyl)biphenyl-3-ylsulfonyl)-1-oxa-8-azaspiro[4.5]decan-3-ylamino)-3-(3-(methylsulfonyl)phenoxy)propan-2-ol] | 41.9
10 | NCc1ccc(-c2cc(S(=O)(=O)N3CCC4(CC3)C[C@H](NC[C@H](O)COc3cccc(S(=O)(=O)C5(CO)CC5)c3)CO4)ccc2F)cc1 [Compound 218, (S)-1-((S)-8-(4′-(aminomethyl)-6-fluorobiphenyl-3-ylsulfonyl)-1-oxa-8-azaspiro[4.5]decan-3-ylamino)-3-(3-(1-(hydroxymethyl)cyclopropylsulfonyl)phenoxy)propan-2-ol] | 29.3
11 | CCOc1ccc(-c2ccc(CCNC(C)=O)cc2)cc1S(=O)(=O)N1CCC2(CC1)C[C@H](NC[C@H](O)COc1cccc(S(=O)(=O)C3(CO)CC3)c1)CO2 [Compound 177, N-(2-(4′-ethoxy-3′-((S)-3-((S)-2-hydroxy-3-(3-(1-(hydroxymethyl)cyclopropylsulfonyl)phenoxy)propylamino)-1-oxa-8-azaspiro[4.5]decan-8-ylsulfonyl)biphenyl-4-yl)ethyl)acetamide] | 50.6
12 | O=S(=O)(CCO)c1cccc(OC[C@@H](O)CN[C@H]2COC3(CCN(S(=O)(=O)c4ccc5ccccc5c4)CC3)C2)c1 [Compound 35, (S)-1-(3-(2-hydroxyethylsulfonyl)phenoxy)-3-((R)-8-(naphthalen-2-ylsulfonyl)-1-oxa-8-azaspiro[4.5]decan-3-ylamino)propan-2-ol] | 20.3
13 | COCS(=O)(=O)c1cccc(OC[C@@H](O)CN[C@H]2COC3(CCN(S(=O)(=O)c4cnc5ccccc5c4)CC3)C2)c1 [Compound 141, (S)-1-(3-(methoxymethylsulfonyl)phenoxy)-3-((R)-8-(quinolin-3-ylsulfonyl)-1-oxa-8-azaspiro[4.5]decan-3-ylamino)propan-2-ol] | 11.6
14 | CN1CCOc2ncc(S(=O)(=O)N3CCC4(CC3)C[C@@H](NC[C@H](O)COc3cccc(CS(C)(=O)=O)c3)CO4)cc21 [Compound 104, (S)-1-((R)-8-(1-methyl-2,3-dihydro-1H-pyrido[2,3-b][1,4]oxazin-7-ylsulfonyl)-1-oxa-8-azaspiro[4.5]decan-3-ylamino)-3-(3-(methylsulfonylmethyl)phenoxy)propan-2-ol] | 36.5
15 | CC(C)(C(N)=O)S(=O)(=O)c1cccc(OC[C@@H](O)CN[C@H]2COC3(CCN(S(=O)(=O)c4cnc5ccccc5c4)CC3)C2)c1 [Compound 108, 2-(3-((S)-2-hydroxy-3-((R)-8-(quinolin-3-ylsulfonyl)-1-oxa-8-azaspiro[4.5]decan-3-ylamino)propoxy)phenylsulfonyl)-2-methylpropanamide] | 325

The next lines start with the values.

Row | IC50 [nM] | SMILES
16 | 1690 | CCn1cc(S(=O)(=O)N2CCC3(CC2)C[C@@H](NC[C@@H](O)COc2cccc(S(C)(=O)=O)c2)CO3)c(=O)c2ccccc21 [Compound 337, 1-ethyl-3-((R)-3-((R)-2-hydroxy-3-(3-(methylsulfonyl)phenoxy)propylamino)-1-oxa-8-azaspiro[4.5]decan-8-ylsulfonyl)quinolin-4(1H)-one]
17 | 17.3 | O=c1c(S(=O)(=O)N2CCC3(CC2)C[C@@H](NC[C@H](O)COc2cccc(S(=O)(=O)C4CC4)c2)CO3)c[nH]c2ccccc12 [Compound 326, 3-((R)-3-((S)-3-(3-(cyclopropylsulfonyl)phenoxy)-2-hydroxypropylamino)-1-oxa-8-azaspiro[4.5]decan-8-ylsulfonyl)quinolin-4(1H)-one]
18 | 30 | CCn1cc(S(=O)(=O)N2CCC3(CC2)C[C@@H](NC[C@H](O)COc2cccc(S(=O)(=O)C(C)C)c2)CO3)c(=O)c2cccc(F)c21 [Compound 331, 1-ethyl-8-fluoro-3-((R)-3-((S)-2-hydroxy-3-(3-(isopropylsulfonyl)phenoxy)propylamino)-1-oxa-8-azaspiro[4.5]decan-8-ylsulfonyl)quinolin-4(1H)-one]
19 | 442 | COCCNCc1ccc(-c2cccc(S(=O)(=O)N3CCC4(CC3)C[C@@H](NC[C@H](O)COc3cccc(S(=O)(=O)C5(CO)CC5)c3)CO4)c2)cc1 [Compound 267, (S)-1-(3-(1-(hydroxymethyl)cyclopropylsulfonyl)phenoxy)-3-((R)-8-(4′-((2-methoxyethylamino)methyl)biphenyl-3-ylsulfonyl)-1-oxa-8-azaspiro[4.5]decan-3-ylamino)propan-2-ol]
20 | 102 | CS(=O)(=O)Cc1cccc(OC[C@@H](O)CN[C@H]2COC3(CCN(S(=O)(=O)c4ccc5ncccc5c4)CC3)C2)c1 [Compound 336, (S)-1-(3-(methylsulfonylmethyl)phenoxy)-3-((R)-8-(quinolin-6-ylsulfonyl)-1-oxa-8-azaspiro[4.5]decan-3-ylamino)propan-2-ol]
21 | 130 | CCn1cc(S(=O)(=O)N2CCC3(CC2)C[C@H](NC[C@H](O)COc2cccc(S(=O)(=O)C4(CO)CC4)c2)CO3)c(=O)c2ccccc21 [Compound 293, 1-ethyl-3-((S)-3-((S)-2-hydroxy-3-(3-(1-(hydroxymethyl)cyclopropylsulfonyl)phenoxy)propylamino)-1-oxa-8-azaspiro[4.5]decan-8-ylsulfonyl)quinolin-4(1H)-one]
22 | 90.2 | CCn1cc(S(=O)(=O)N2CCC3(CC2)C[C@@H](NC[C@H](O)COc2cccc(S(=O)(=O)C4(CO)CC4)c2)CO3)c(=O)c2ccccc21 [Compound 292, 1-ethyl-3-((R)-3-((S)-2-hydroxy-3-(3-(1-(hydroxymethyl)cyclopropylsulfonyl)phenoxy)propylamino)-1-oxa-8-azaspiro[4.5]decan-8-ylsulfonyl)quinolin-4(1H)-one]
23 | 982 | CC(C)(C)NCc1ccc(-c2cccc(S(=O)(=O)N3CCC4(CC3)C[C@@H](NC[C@H](O)COc3cccc(S(=O)(=O)C5(CO)CC5)c3)CO4)c2)cc1 [Compound 262, (S)-1-((R)-8-(4′-((tert-butylamino)methyl)biphenyl-3-ylsulfonyl)-1-oxa-8-azaspiro[4.5]decan-3-ylamino)-3-(3-(1-(hydroxymethyl)cyclopropylsulfonyl)phenoxy)propan-2-ol]
24 | 35.5 | O=S(=O)(c1cccc(-c2ccc(CNCC(F)(F)F)cc2)c1)N1CCC2(CC1)C[C@H](NC[C@H](O)COc1cccc(S(=O)(=O)C3(CO)CC3)c1)CO2 [Compound 242, (S)-1-(3-(1-(hydroxymethyl)cyclopropylsulfonyl)phenoxy)-3-((S)-8-(4′-((2,2,2-trifluoroethylamino)methyl)biphenyl-3-ylsulfonyl)-1-oxa-8-azaspiro[4.5]decan-3-ylamino)propan-2-ol]
